Read-outs that look alike come from different tables or passages of the source.
Key:
[1] = Cellular toxicity of select compounds (% dead cells, CC50); format: cell-based; conditions: conclusions
[2] = system: cells; assay: as above; format: cell-based; conditions: 24 h
[3] = system: Ad5; assay: microbe, parasite or virus in culture; format: cell-based, human adenovirus
[4] = system: coxsackievirus A24 variant (CVA24v); assay: Coxsackievirus fluorescent focus assay in HCE cells; format: cell-based; design: key: +++: No visible fluorescence was observed; ++: some infected cells were detected; conditions: 18 h
Protocol: Approximately 2×10^5 human corneal epithelial (HCE) cells were plated in 24-well plates the day prior infection. On the day of infection the media was removed and was replaced with media containing 70 virus particles of CVA24v per cell and serial dilutions of compound 35j, ranging from 50- to 6.25 μM. After 18 h of incubation at 37° C. in 5% CO2, the cells were fixed using ice-cold 100% methanol for 5 min. Thereafter, the cells were incubated with a monoclonal mouse anti-VP1 structural protein antibody (clone 5-D8/1, DakoCytomation) diluted 1:200 in PBS, for 1 h in RT. The cells were then washed with PBS and incubated with FITC labeled anti-mouse secondary antibody (DakoCytomation), diluted 1:100 for 1 h, RT, in the dark. Further, unbound antibody was washed away in PBS and the cells were examined in fluorescent microscope.

## O=C(Nc1cc(F)c(F)cc1C(=O)Nc1ccccc1C(=O)O)c1ccccc1F [Compound 35j, 2-[4,5-difluoro-2-(2-fluorobenzoylamino)-benzoylamino]benzoic acid]
[1]
  CC50: 240000 nM
[2]; 30 μM
  Toxicity at 30 μM (% dead cells after 24 h): 6 ± 4%
[2]; 60 μM
  Toxicity at 60 μM (% dead cells after 24 h): 16 ± 9%
[3]; CC50/EC50
  toxicity/activity selectivity index: 890
[3]; Human adenovirus sp., A549, read-out: EC50-value
  EC50: 300 nM
[3]; unidentified adenovirus, A549
  EC50: 270 nM
[3]; unidentified adenovirus, A549, read-out: % Inh. at 5 μM
  inhibition at 5 µM: 94 ± 3%
[3]; unidentified adenovirus, A549, read-out: % Inh. at 15 μM
  inhibition at 15 µM: 93 ± 2%
[4]; 6.25 μM
  Relative inhibition of CVA24v: ++
[4]; 12.5 μM
  Relative inhibition of CVA24v: ++
[4]; 25 μM
  Relative inhibition of CVA24v: +++
[4]; 50 μM
  Relative inhibition of CVA24v: +++
